Measured values published in patent US5858994A, “Carbohydrate conjugates as inhibitors of cell adhesion” (priority 1994, dated 1999).
Read-outs that look alike come from different tables or passages of the source. Each block holds one compound with its values, some of them ahead of it.

How the values were obtained:
[1] = biological target: T1, E-Selectin (Homo sapiens, UniProt P16581); assay: Inhibition of HL60 cell adhesion to soluble, recombinant E-selectin (E-selectin-IgG1 fusion protein); assay type: cell-based
T1 sequence (P16581 22-556): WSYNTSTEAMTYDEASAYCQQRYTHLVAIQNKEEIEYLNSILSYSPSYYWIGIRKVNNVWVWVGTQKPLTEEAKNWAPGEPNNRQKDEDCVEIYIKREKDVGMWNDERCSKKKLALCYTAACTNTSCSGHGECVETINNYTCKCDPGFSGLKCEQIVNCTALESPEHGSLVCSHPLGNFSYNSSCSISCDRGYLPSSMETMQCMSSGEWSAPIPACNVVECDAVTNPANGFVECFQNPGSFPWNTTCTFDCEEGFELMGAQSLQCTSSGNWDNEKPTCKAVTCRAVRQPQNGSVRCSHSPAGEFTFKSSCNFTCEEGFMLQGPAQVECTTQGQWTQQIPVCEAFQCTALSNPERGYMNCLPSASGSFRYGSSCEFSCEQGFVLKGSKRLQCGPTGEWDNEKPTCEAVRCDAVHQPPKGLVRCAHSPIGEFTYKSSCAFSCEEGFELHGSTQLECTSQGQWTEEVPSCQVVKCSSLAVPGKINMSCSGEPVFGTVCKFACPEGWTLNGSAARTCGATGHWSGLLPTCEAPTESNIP
Source text: (§1) Carrying out these assays to measure the inhibitory activity of the compounds according to the invention on cell adhesion of promyelocytic cells by means of selecting is described in detail in European Published Application EP 0 601 417.
(§2) In order to test the efficacy of the carbohydrate conjugates on the interaction between the E- and P-selectins (former nomenclature ELAM-1 or GMP-140) with their ligands, an assay is used which in each case is specific only for one of these interactions. The ligands are supplied in their natural form as surface structures on promyelocytic HL60 cells. Since HL60 cells contain ligands and adhesion molecules of very different specificity, the desired specificity of the assay can only be produced by means of the binding component. The binding components used were genetically prepared soluble fusion proteins from the in each case extracytoplasmatic domains of E- or P-selectin and the constant region of a human immunoglobulin of the IgG1 subclass.
Preparation of L-selectin-IgG1
For the preparation of soluble L-selectin-IgG1 fusion protein, the genetic construct "ELAM-Rg" published by Walz et al., 1990 was used.
For expression, the plasmid DNA was transfected in COS-7 cells (ATCC) by means of DEAE-dextran (Molecular Biology Methods: see Ausubel, F. M., Brent, R., Kingston, R. E., Moore, D. D., Seidman, J. G., Struhl, K. and Smith, J. A. 1990. Current Protocols in Molecular Biology, John Wiley, New York). Seven days after transfection, the culture supernatant is recovered, freed from cells and cell fragments by centrifugation and transferred to 25 mM HEPES pH 7.0, 0.3 mM PMSF, 0.02% sodium azide and stored at +4° C.
(§3) 1. 96-well microtiter test plates (Nunc Maxisorb) are incubated at room temperature for 2 hours with 100 μl of a goat anti-human IgG antibody (Sigma) diluted (1+100) in 50 mM Tris pH 9.5. After removing the antibody solution washing is carried out once with PBS.
(§4) 2. 150 μl of the blocking buffer are left in the wells at room temperature for 1 hour. The composition of the blocking buffer is: 0.1% gelatin, 1% BSA, 5% calf serum, 0.2 mM PMSF, 0.02% sodium azide. After removing the blocking buffer washing is carried out once with PBS.
(§5) 3. 100 μl each of cell culture supernatant of appropriately transfected and expressing COS cells are pipetted into the wells. Incubation is carried out at room temperature for 2 hours. After removing the cell culture supernatant washing is carried out once with PBS.
(§6) 4. 20 μl of binding buffer are added to the wells. The binding buffer has the composition: 50 mM HEPES, pH 7.5; 100 mM NaCl; 1 mg/ml BSA; 2 mM MgCl2; 1 mM CaCl2; 3 mM MnCl2; 0.02% sodium azide; 0.2 mM PMSF. 5 μl of the test substance are pipetted into this, mixed by swirling the plate and incubated at room temperature for 10 minutes.
(§7) 5. 50 ml of an HL60 cell culture containing 200,000 cells/ml are centrifuged at 350 g for 4 minutes. The pellet is resuspended in 10 ml of RPMI 1640 and the cells are centrifuged again. For labeling the cells, 50 μg of BCECF-AM (Molecular Probes) are dissolved in 5 μl of anhydrous DMSO; 1.5 ml of RPMI 1640 are then added to the BCECF-AM/DMSO solution. The cells are resuspended using this solution and incubated at 37° C. for 30 minutes. After centrifugation at 350 g for 2 minutes, the labeled cell pellet is resuspended in 11 ml of binding buffer and the resuspended cells are distributed into the microtiter plate wells in 100 μl aliquots. The plate is allowed to stand at room temperature for 10 minutes in order to allow the cells to sediment on the bottom of the test plate. In the course of this, the cells have the opportunity to adhere to the coated plastic.
(§8) 6. To stop the test, the microtiter plate is immersed completely in the stop buffer (25 mM tris, pH 7.5; 125 mM NaCl; 0.1% BSA; 2 mM MgCl2; 1 mM CaCl2; 3 mM MnCl2; 0.02% sodium azide) at an angle of 45°. The stop buffer is removed from the wells by inversion and the procedure is repeated a further two times.

[2] = biological target: T2, P-Selectin (Homo sapiens, UniProt P16109); assay: Inhibition of HL60 cell adhesion to soluble, recombinant P-selectin (P-selectin-IgG1 fusion protein); assay type: cell-based
T2 sequence (P16109 42-771): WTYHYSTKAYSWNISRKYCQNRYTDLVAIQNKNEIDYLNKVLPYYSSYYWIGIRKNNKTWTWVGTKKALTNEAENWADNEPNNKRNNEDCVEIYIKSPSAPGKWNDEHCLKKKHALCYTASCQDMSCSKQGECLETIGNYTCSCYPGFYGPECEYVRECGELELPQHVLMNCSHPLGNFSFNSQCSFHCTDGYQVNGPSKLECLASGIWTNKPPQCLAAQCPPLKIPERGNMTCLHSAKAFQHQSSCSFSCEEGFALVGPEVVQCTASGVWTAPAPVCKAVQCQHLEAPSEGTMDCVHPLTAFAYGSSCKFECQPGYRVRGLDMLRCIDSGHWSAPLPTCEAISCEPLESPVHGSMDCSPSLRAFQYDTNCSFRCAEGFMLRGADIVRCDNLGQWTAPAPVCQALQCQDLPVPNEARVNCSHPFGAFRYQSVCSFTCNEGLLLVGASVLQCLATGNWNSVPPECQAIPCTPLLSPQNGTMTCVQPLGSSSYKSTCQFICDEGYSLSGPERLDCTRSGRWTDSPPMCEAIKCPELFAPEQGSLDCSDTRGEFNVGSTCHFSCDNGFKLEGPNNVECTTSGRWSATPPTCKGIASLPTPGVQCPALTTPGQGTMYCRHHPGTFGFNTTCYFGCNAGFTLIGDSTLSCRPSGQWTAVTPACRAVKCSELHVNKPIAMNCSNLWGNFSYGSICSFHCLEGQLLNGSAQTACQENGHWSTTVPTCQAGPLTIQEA
Source text: as §1, §2
Preparation of P-selectin-IgG1
For preparation of the soluble P-selectin-IgG1 fusion protein, the genetic construct "ICD62Rg" published by Aruffo et al., 1991 is used. The further procedure corresponds to the preparation of L-selectin-IgG1 presented under A1.
as §3, §4, §5, §6, §7, §8
7. Measurement of the BCECF-AM-labeled cells firmly adhering to the wells is carried out in a cytofluorimeter (Millipore) at a sensitivity setting of 4, an excitation wavelength of 485/220 nm and an emission wavelength of 530/250 nm.

[3] = hydrolysis in aqueous solution; assay type: physicochemical; conditions: elimination of maleic acid, C45 H78 N4 O24 formed
[4] = test system: P-selectin-dependent lung injuries; conditions: animal experiments; cited from earlier work
[5] = test system: myocardial reperfusion injuries; conditions: animal experiments; cited from earlier work
[6] = test system: selectin receptors; assay: binding to selectin receptors, statements in words
[7] = read-out: IC50 E-Selectin, inhibition of HL60 cell adhesion to soluble, recombinant adhesion molecules
[8] = read-out: IC50 P-Selectin, inhibition of HL60 cell adhesion to soluble, recombinant adhesion molecules

Compound: CC(=O)N[C@@H]1[C@@H](O[C@@H]2O[C@@H](C)[C@@H](O)[C@@H](O)[C@@H]2O)[C@H](O[C@@H]2O[C@H](CO)[C@H](O)[C@H](O[C@]3(C(=O)O)C[C@H](O)[C@@H](NC(C)=O)[C@H]([C@H](O)[C@H](O)CO)O3)[C@H]2O)[C@@H](CO)O[C@H]1NC(=O)[C@H](C)NC(=O)[C@H](CC(=O)O)NC(=O)CNC(=O)[C@@H](N)CCCNC(=N)N [Compound I-2]
IC50 [1]: > 800 µM | IC50 [2]: 10 µM

Compound: CC(=O)N[C@H]1[C@H](OCCCCCCNC(=O)C2CCC(CNC(=O)/C=C\C(=O)O)CC2)O[C@H](CO)[C@@H](O[C@@H]2O[C@H](CO)[C@H](O)[C@H](O[C@]3(C(=O)O)C[C@H](O)[C@@H](NC(C)=O)[C@H]([C@H](O)[C@H](O)CO)O3)[C@H]2O)[C@@H]1O[C@@H]1O[C@@H](C)[C@@H](O)[C@@H](O)[C@@H]1O (stereo partly drawn)
hydrolysis in aqueous solution [3]: slowly hydrolyzes further in aqueous solution

Compound: CC(=O)N[C@@H]1[C@@H](O[C@@H]2O[C@@H](C)[C@@H](O)[C@@H](O)[C@@H]2O)[C@H](O[C@@H]2O[C@H](CO)[C@H](O)[C@H](O[C@]3(C(=O)O)C[C@H](O)[C@@H](NC(C)=O)[C@H]([C@H](O)[C@H](O)CO)O3)[C@H]2O)[C@@H](CO)O[C@H]1O [SLeX]
use in P-selectin-dependent lung injuries [4]: successfully used | use in myocardial reperfusion injuries [5]: successfully used

binding of the peptide on its own to selectins [6]: does not bind
Compound: Arg-Gly-Asp-Ala (RGDA; printed: Arg-Gly-Asp-Ala)

IC50 ([1]; inhibition of HL60 cell adhesion to soluble, recombinant adhesion molecules, read-out: IC50 E-Selectin): 390 µM | IC50 ([2]; inhibition of HL60 cell adhesion to soluble, recombinant adhesion molecules, read-out: IC50 P-Selectin): 400 µM
Compound: CC(=O)N[C@H]1[C@H](OCCCCCCNC(=O)CCSSc2ccccn2)O[C@H](CO)[C@@H](O[C@@H]2O[C@H](CO)[C@H](O)[C@H](O[C@]3(C(=O)O)C[C@H](O)[C@@H](NC(C)=O)[C@H]([C@H](O)[C@H](O)CO)O3)[C@H]2O)[C@@H]1O[C@@H]1O[C@@H](C)[C@@H](O)[C@@H](O)[C@@H]1O [Compound I-10]

Compound: CC(=O)N[C@H]1[C@H](OCCCCCCNC(=O)CCCCCNC(=O)CCC(CCC(=O)NCCCCCC(=O)NCCCCCCO[C@@H]2O[C@H](CO)[C@@H](O[C@@H]3O[C@H](CO)[C@H](O)[C@H](O[C@]4(C(=O)O)C[C@H](O)[C@@H](NC(C)=O)[C@H]([C@H](O)[C@H](O)CO)O4)[C@H]3O)[C@H](O[C@@H]3O[C@@H](C)[C@@H](O)[C@@H](O)[C@@H]3O)[C@H]2NC(C)=O)(CCC(=O)NCCCCCC(=O)NCCCCCCO[C@@H]2O[C@H](CO)[C@@H](O[C@@H]3O[C@H](CO)[C@H](O)[C@H](O[C@]4(C(=O)O)C[C@H](O)[C@@H](NC(C)=O)[C@H]([C@H](O)[C@H](O)CO)O4)[C@H]3O)[C@H](O[C@@H]3O[C@@H](C)[C@@H](O)[C@@H](O)[C@@H]3O)[C@H]2NC(C)=O)[N+](=O)[O-])O[C@H](CO)[C@@H](O[C@@H]2O[C@H](CO)[C@H](O)[C@H](O[C@]3(C(=O)O)C[C@H](O)[C@@H](NC(C)=O)[C@H]([C@H](O)[C@H](O)CO)O3)[C@H]2O)[C@@H]1O[C@@H]1O[C@@H](C)[C@@H](O)[C@@H](O)[C@@H]1O [II-3]
IC50 [1, 7]: 400 µM | IC50 [2, 8]: > 1000 µM

Compound: CC(=O)N[C@@H]1[C@@H](O[C@@H]2O[C@@H](C)[C@@H](O)[C@@H](O)[C@@H]2O)[C@H](O[C@@H]2O[C@H](CO)[C@H](O)[C@H](O[C@]3(C(=O)O)C[C@H](O)[C@@H](NC(C)=O)[C@H]([C@H](O)[C@H](O)CO)O3)[C@H]2O)[C@@H](CO)O[C@H]1NC(=O)CCC(CCC(=O)N[C@@H]1O[C@H](CO)[C@@H](O[C@@H]2O[C@H](CO)[C@H](O)[C@H](O[C@]3(C(=O)O)C[C@H](O)[C@@H](NC(C)=O)[C@H]([C@H](O)[C@H](O)CO)O3)[C@H]2O)[C@H](O[C@@H]2O[C@@H](C)[C@@H](O)[C@@H](O)[C@@H]2O)[C@H]1NC(C)=O)(CCC(=O)N[C@@H]1O[C@H](CO)[C@@H](O[C@@H]2O[C@H](CO)[C@H](O)[C@H](O[C@]3(C(=O)O)C[C@H](O)[C@@H](NC(C)=O)[C@H]([C@H](O)[C@H](O)CO)O3)[C@H]2O)[C@H](O[C@@H]2O[C@@H](C)[C@@H](O)[C@@H](O)[C@@H]2O)[C@H]1NC(C)=O)[N+](=O)[O-] [II-1, tris{2-[N-(5-acetamido-3,5-dideoxy-D-glycero-D-galacto-2-nonulopyranosylate)-(2→3)-(β-D-galactopyranosyl)-(1→4)-[(α-L-fucopyranosyl)-(1→3)]-2-acetamido-1,2-dideoxy-β-D-glucopyranose]amidoethyl}nitro-methane]
IC50 [1, 7]: 380 µM | IC50 [2, 8]: > 800 µM
